Experimental data as given in US7772198B2, “CFTR channel modulators” (Centre National de la Recherche Scientifique, priority 2003, dated 2010).
Like-named read-outs stand apart in the source and are kept apart here.

Tests used:
[1] = target: wild-type CFTR protein (Calu-3 cells) (Homo sapiens, UniProt P13569); assay: iodide efflux, Calu-3 human lung cells naturally expressing wild-type CFTR
[2] = target: T1, G551D-CFTR (CHO-G551D cells) (Homo sapiens, UniProt P13569, G551D); assay: 125I iodide efflux, CHO cells expressing G551D mutated CFTR (CHO-G551D); type: cell-based; details: for IC50: 10 μM Fsk + 30 μM genistein; for effect on G551D mutated receptors: summary of Table II
T1 construct: expressed in transfected cells; host or cells: CHO (Chinese Hamster Ovary) cells, stably transfected

[3] = target: T2, wild-type CFTR receptor (CHO-WT cells) (Homo sapiens, UniProt P13569); assay: 125I iodide efflux, CHO cells overexpressing wild-type CFTR (CHO-WT); type: cell-based; details: for IC50: 5 μM Fsk; for Effect: + activator, − inhibitor, compound 1 μM, 100% = activation with 1 μM forskolin; for EC50: activators, 1 μM forskolin; for effect on wild-type receptors: summary of Table II
T2 construct: expressed in transfected cells; host or cells: CHO (Chinese Hamster Ovary) cells, stably transfected

[4] = target: CFTR channel (Homo sapiens, UniProt P13569); details: read-out: IC50, concentration to inhibit 50% of the activity of the CFTR channel; cited from earlier work
[5] = system: diarrhoea caused by the cholera toxin; details: mouse, in vivo; cited from earlier work
[6] = system: mice; details: at 7 days, 10 mg/kg injection; cited from earlier work
[7] = pKa evaluation in aqueous solution; type: physicochemical
Method: As an example, the pKa of this compound was evaluated at 4. This means that in an aqueous solution with a pH of 7, this compound is mainly in zwitterionic form, as in the case of highly diluted solutions such as those used for biological tests.

[8] = target: mutated F508-CFTR (CF15 cells) (Homo sapiens, UniProt P13569, DEL508-508); assay: iodide efflux, CF15 human nasal epithelial cells expressing mutated F508-CFTR; details: results not shown
[9] = 1 μM compound added to 1 μM Fsk
[10] = 1 μM compound added to 10 μM Fsk + 30 μM genistein
[11] = 1 μM compound added to 5 μM Fsk

T1 sequence (P13569 whole entry G551D): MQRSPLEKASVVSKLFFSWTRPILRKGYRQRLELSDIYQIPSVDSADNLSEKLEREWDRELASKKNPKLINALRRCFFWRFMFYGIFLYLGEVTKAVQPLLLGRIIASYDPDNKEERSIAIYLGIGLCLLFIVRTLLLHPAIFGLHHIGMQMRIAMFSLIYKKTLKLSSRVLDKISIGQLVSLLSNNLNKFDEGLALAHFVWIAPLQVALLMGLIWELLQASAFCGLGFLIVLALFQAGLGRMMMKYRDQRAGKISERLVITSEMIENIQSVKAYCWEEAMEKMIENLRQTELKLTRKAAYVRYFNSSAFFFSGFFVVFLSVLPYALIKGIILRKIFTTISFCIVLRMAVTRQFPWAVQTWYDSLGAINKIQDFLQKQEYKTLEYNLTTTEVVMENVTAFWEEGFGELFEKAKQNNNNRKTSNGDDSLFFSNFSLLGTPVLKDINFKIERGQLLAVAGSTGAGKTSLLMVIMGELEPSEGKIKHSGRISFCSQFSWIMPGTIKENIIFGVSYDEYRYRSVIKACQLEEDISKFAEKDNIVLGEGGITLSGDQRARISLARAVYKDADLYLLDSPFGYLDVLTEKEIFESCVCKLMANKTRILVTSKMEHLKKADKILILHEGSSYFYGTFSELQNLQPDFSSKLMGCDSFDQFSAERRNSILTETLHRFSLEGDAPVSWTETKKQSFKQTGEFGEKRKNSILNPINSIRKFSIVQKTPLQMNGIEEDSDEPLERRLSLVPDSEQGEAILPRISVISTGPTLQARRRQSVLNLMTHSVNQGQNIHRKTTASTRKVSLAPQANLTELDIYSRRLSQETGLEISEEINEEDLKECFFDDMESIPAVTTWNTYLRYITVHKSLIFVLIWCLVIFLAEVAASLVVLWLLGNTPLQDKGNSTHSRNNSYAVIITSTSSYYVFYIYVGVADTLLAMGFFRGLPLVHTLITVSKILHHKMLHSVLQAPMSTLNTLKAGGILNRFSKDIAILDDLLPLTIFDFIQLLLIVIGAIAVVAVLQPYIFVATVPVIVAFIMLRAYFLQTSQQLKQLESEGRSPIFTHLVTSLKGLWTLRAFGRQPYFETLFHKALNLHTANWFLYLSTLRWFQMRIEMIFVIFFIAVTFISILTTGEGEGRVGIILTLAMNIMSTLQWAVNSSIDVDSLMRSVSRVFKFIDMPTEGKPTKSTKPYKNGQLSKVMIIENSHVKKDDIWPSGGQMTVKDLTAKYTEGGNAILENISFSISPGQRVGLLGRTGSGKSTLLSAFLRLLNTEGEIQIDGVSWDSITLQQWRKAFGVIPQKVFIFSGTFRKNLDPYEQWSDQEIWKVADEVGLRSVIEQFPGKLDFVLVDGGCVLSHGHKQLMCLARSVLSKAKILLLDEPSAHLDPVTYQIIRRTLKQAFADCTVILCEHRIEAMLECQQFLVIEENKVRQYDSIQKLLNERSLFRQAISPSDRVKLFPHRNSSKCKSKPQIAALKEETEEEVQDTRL
T2 sequence (P13569 whole entry): as the sequence (P13569 whole entry G551D) above, with D551G counted along it
wild-type CFTR protein (Calu-3 cells), sequence (P13569 whole entry): as the sequence (P13569 whole entry G551D) above, with D551G counted along it
CFTR channel, sequence (P13569 whole entry): as the sequence (P13569 whole entry G551D) above, with D551G counted along it
mutated F508-CFTR (CF15 cells), sequence (P13569 with tags, fused parts or gaps DEL508-508): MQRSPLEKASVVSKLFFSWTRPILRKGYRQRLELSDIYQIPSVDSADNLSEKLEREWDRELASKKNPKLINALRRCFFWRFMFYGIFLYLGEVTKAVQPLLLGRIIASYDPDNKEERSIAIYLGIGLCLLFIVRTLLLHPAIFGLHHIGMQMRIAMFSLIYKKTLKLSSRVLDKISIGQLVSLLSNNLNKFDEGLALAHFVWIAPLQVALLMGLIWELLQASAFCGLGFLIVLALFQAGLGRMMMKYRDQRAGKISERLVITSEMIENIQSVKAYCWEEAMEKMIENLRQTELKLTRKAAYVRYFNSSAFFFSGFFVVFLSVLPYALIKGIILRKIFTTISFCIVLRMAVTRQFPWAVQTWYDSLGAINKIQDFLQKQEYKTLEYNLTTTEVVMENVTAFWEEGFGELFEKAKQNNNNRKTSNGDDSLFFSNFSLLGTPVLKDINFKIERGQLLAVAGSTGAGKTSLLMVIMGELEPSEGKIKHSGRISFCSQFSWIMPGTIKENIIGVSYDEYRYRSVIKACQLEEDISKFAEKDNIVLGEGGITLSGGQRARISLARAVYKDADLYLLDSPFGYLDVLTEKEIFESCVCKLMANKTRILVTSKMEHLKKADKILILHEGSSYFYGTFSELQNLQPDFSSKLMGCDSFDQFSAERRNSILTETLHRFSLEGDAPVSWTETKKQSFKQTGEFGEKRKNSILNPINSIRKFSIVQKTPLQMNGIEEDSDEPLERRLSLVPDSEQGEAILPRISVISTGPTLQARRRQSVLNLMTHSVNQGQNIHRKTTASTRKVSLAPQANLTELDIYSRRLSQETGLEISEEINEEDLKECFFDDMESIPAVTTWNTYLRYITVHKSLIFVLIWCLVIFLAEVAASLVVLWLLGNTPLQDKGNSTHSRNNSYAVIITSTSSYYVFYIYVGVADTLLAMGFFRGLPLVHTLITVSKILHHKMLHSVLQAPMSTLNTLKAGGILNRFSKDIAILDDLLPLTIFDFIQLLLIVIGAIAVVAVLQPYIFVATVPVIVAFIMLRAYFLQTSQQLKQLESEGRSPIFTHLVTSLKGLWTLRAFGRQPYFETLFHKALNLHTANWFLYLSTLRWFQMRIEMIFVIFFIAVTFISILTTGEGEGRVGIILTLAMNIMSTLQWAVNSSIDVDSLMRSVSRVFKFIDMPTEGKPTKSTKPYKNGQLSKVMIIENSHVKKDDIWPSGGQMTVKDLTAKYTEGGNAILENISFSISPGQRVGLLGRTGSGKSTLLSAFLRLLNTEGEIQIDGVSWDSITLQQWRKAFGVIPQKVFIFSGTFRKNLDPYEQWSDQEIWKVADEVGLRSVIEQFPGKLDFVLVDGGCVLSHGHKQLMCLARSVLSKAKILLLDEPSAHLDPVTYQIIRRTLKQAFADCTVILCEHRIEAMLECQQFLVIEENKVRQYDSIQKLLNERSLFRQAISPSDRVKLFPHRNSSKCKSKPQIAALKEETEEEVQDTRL

`CCCN1C=CC2=NC(C)(C(=O)O)C(O)C(C)(O)N2C1=O` (centres unmarked) [Compound 2, 1-propylcytosine Adducts] gave an IC50 [1] of 2 nM, an IC50 [2] of 154 nM and an IC50 [3] of 2 nM.
For `O=C(O)c1ccc(/C=C2\SC(=S)N(c3cccc(C(F)(F)F)c3)C2=O)cc1` [CFTRinh-172], the IC50 [4] is given as 200 nM, the “reduction of diarrhoea caused by the cholera toxin” value [5] is given as “more than 90%” and the toxicity in mice [6] is given as “absence of toxicity”.
For `CC1(C(=O)O)N=C2c3nc[nH]c3N=CN2C(C)(O)C1O` (centres unmarked) [Compound 5, Adenine Adducts], the IC50 [1] was 12000 nM, the IC50 [2] was 110000 nM and the IC50 [3] was 6000 nM.
Molecule `Cc1nc2cccc[n+]2c(C)c1O` [6 (chlorhydrate)] has an IC50 [3] of 7 nM.
With `C=CCn1cnc2c1N=CN1C2=NC(C)(C(=O)O)C(O)C1(C)O` (mixture of isomers) [Compound 10, 9-allyladenine Adducts] the Effect [3] was “+ (In case of a significant increase, the compound was listed as an activator)” and the EC50 [3] was 7500 nM.
For `CCCn1cnc2c1N=CN1C2=N[C@](C)(C(=O)O)[C@@H](O)[C@@]1(C)O` (racemic) [Compound 9a], the EC50 [1] was 2000 nM, the Effect [3] was “+ (In case of a significant increase, the compound was listed as an activator)” and the EC50 [3] was 2000 nM.
In the case of `C[C@]1(C(=O)O)N=C2c3nc[nH]c3N=CN2[C@](C)(O)[C@H]1O` (single isomer, unassigned) [Compound 5a], the IC50 [3] is reported as 10000 nM.
`Cc1nc2cccc[n+]2c(C)c1[O-]` [Compound 6, 2-aminopyridine Derivative] showed a pKa ([7]; read-out: pKa) of 4, an IC50 [1] of 5 nM and an IC50 [2] of 90 nM. The IC50 [3] was 5 nM.
For `CCCn1cnc2c1N=CN1C2=NC(C)(C(=O)O)C(O)C1(C)O` (mixture of isomers) [Compound 9, 9-propyladenine Adducts], the “activation of ΔF508 mutated receptor” value [8] was “can activate”, the “effect on activation of mutated CFTR (CHO-G551D)” value (“effect … (CHO-G551D)” below) [2, 9] was “no effect” and the “effect … (CHO-G551D)” value [2, 10] was “activation”. The “effect on G551D mutated receptors” value [2] was “unable to activate”, the “effect on activation of wild-type CFTR (CHO-WT)” value (from here on “effect on activation … (CHO-WT)”) [3, 9] was “activation” and the “effect on activation … (CHO-WT)” value [3, 10] was “activation”. For the same molecule, the Effect [3] was “+ (In case of a significant increase, the compound was listed as an activator)”, the EC50 [3] was 2000 nM and the “effect on wild-type receptors” value [3] was “activator effect”.
Molecule `CCCN1C=CC2=N[C@](C)(C(=O)O)[C@@H](O)[C@@](C)(O)N2C1=O` [Compound 2a] has an IC50 [3] of 2 nM.
With `C[N+](C)(C)CC(=O)O` [Betaine, reference compound] the IC50 [3] was 96000 nM.
Work on `CCC1(C(=O)O)N=C2C=CC=CN2C(O)(CC)C1O` (mixture of isomers) [Compound 11] yielded an IC50 [3] of 18000 nM.
In the case of `C[n+]1cn([C@@H]2O[C@H](CO)[C@@H](O)[C@H]2O)c2nc(N)nc([O-])c21` [Compound 8, 7-methylguanosine], the IC50 [1] is reported as 11000 nM, the IC50 [2] is reported as 15000 nM and the IC50 [3] is reported as 3500 nM.
Molecule `C[C@]1(C(=O)O)N=C2c3nc[nH]c3N=CN2[C@](C)(O)[C@H]1O` (single isomer, unassigned) [Compound 5b] has an IC50 [3] of 3000 nM.
For `CC1(C(=O)O)N=C2c3ncn([C@H]4CC(O)[C@@H](CO)O4)c3N=CN2C(C)(O)C1O` (stereo in doubt) [Compound 1, 2′-deoxyadenosine Adducts], the IC50 [1] was 0.093 nM, the “effect … (CHO-G551D)” value [2, 9] was “no effect” and the “effect … (CHO-G551D)” value [2, 11] was “no effect”. For the same molecule, the “effect … (CHO-G551D)” value [2, 10] was “inhibition”, the IC50 [2] was 43 nM and the “effect on G551D mutated receptors” value [2] was “effectively antagonises the action of the forskolin and genistein activators”. The “effect on activation … (CHO-WT)” value [3, 9] was “inhibition”, the “effect on activation … (CHO-WT)” value [3, 11] was “inhibition” and the “effect on activation … (CHO-WT)” value [3, 10] was “inhibition”. The IC50 [3] was 0.071 nM and the “effect on wild-type receptors” value [3] was “effectively antagonises the action of the forskolin and genistein activators”.
`CC1(C(=O)O)N=C2C(O)=CC=CN2C(C)(O)C1O` (mixture of isomers) [Compound 3, 2-amino-3-hydroxypyridine Adducts] gave an IC50 [1] of 11000 nM, an IC50 [2] of 36000 nM and an IC50 [3] of 4000 nM.
For `CCCn1cnc2c1N=CN1C2=N[C@](C)(C(=O)O)[C@H](O)[C@@]1(C)O` (racemic) [Compound 9b], the Effect [3] was “+ (In case of a significant increase, the compound was listed as an activator)” and the EC50 [3] was 3000 nM.
In the case of `CCCN1C=CC2=N[C@](C)(C(=O)O)[C@H](O)[C@@](C)(O)N2C1=O` [Compound 2b], the IC50 [3] is reported as 1.5 nM.
For `CC1(C(=O)O)N=C2C=CC=CN2C(C)(O)C1O` (centres unmarked), the pKa ([7]; aqueous solution, aqueous solution at 25° C., read-out: pKa, carboxylic acid function) was about 2 and the pKa ([7]; aqueous solution, aqueous solution at 25° C., read-out: pKa, imine function) was about 10.
In the case of `O=C(O)c1nn(Cc2ccc(Cl)cc2Cl)c2ccccc12` [lonidamine], the IC50 [4] is given as 58000 nM.
